Source: patent publication US20260185980A1, “METHOD OF PREVENTING AND/OR REDUCING METASTASIS OF TUMOR CELLS, PREVENTING OR REDUCING SENESCENCE, INHIBITING DIFFERENTIATION AND OF REDUCING INFLAMMATION” (Albert-Ludwigs-Universitaet, priority 2022, published 2026)
Peptide text beside a SMILES is read from it. * marks the point of attachment. Cbz = O=C(OCc1ccccc1)*; CH2F = FC*

Tests used:
caspase-activated CAD = molecular target: T1, caspase-activated CAD (Homo sapiens, UniProt O76075); test: Assay B: Inhibition of caspase-activated CAD (ABT-737 plus S63845, γH2AX); type: cell-based; details: HeLa229-CTRL3 cells, compound pre-treatment 1 hour, ABT-737 50 nM plus S63845 250 nM 2.5 hours
T1 construct: endogenous in cells; host or cells: HeLa229-CTRL3 cells (LentiCRISPRV2_puro with non-targeted gRNA)
T1 sequence (O76075 1-338): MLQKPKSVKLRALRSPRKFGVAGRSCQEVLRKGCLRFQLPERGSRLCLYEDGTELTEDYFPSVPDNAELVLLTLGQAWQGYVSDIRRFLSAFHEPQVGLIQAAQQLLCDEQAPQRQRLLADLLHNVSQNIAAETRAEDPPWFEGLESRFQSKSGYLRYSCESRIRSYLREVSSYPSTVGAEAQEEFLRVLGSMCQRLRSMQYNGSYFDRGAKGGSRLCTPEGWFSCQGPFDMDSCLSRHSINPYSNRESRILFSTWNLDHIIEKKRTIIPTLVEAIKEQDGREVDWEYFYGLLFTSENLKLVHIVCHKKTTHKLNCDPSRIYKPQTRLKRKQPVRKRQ
Experimental: FIG. 12 Activity of compounds against caspase-activated CAD A, HeLa229-CTRL3 cells (transduced with a LentiCRISPRV2_puro virus encoding a non-targeted gRNA) or Hela229 cells transduced with a CAD-targeted LentiCrisprV2 virus (resulting in CAD-deficient cells (CAD KO)) were seeded as described in FIG. 11 and stimulated with […] ABT-737 [50 nM] plus S63845 [250 nM] for 2.5 hours the next day. Subsequent analysis of the cells was performed as described in FIG. 11.
FIG. 12B, HeLa229-CTRL3 cells were seeded as in A and pre-treated (or not) with the indicated compounds and concentrations (Comp) for 1 hour, followed by treatment with ABT-737 plus […] for 2.5 hours. Proteins were detected as described in FIG. 11.
While in the screening we activated CAD with auxin-induced degradation of its inhibitor, CAD is physiologically activated by caspases. […] Test compounds were added 1 h previously. The activity of CAD was measured by the DDR as above (γH2AX). […] The compounds that will be used to inhibit CAD are shown in boxes. Such preferred compounds are: CBN16; CBN17; CBN62; CBN65; CBN66; CBN68; MB4; CD9; CD22 and MB26.

CAD = molecular target: T2, CAD (Homo sapiens, UniProt O76075); test: Assay A: Inhibition of the CAD-dependent DNA-damage response (DDR), γH2AX Western blot; type: cell-based; details: HeLa229-Tir1-iCAD-mAID-GFP cells, compound 10 μM pre-incubated 1 hour, auxin 5 μM 4 hours
T2 construct: endogenous in cells; host or cells: HeLa229-Tir1-iCAD-mAID-GFP cells
T2 sequence (O76075 1-338): T1 sequence (O76075 1-338)
Experimental: Cells were seeded, pre-incubated with the individual compounds and treated with auxin. The DDR (a consequence of CAD-activity) was measured by Western blotting for the marker γH2AX. […] Such preferred compounds are: MB4, MB26; MB33; MB37; CBN16; CBN17; CBN40; CBN62; CBN65; CBN66; CBN68; CD9 and CD22.
FIG. 11 Confirmation of CAD-inhibition: auxin-dependent DDR. HeLa229-Tir1-iCAD-mAID-GFP cells were seeded on a 48-well plate (50,000 cells/well). 24 hours later, cells were pre-incubated (or not) with the indicated compounds (Comp, 10 μM) for 1 hour, followed by auxin treatment [5 μM] for 4 hours. Cells were lysed in Laemmli buffer and lysates were loaded onto SDS-PAGE followed by Western blotting against the indicated proteins. The DNA damage marker γH2AX was used as an indicator of CAD activity. The two left lanes of each gel are negative and positive controls (without and with auxin but without compound; instead, DMSO was used as solvent control). Compounds are indicated at the top.

cancer cells = test: Aggressive cancer growth in vitro (migration, invasion through a basement membrane, colony formation on soft agar); type: cell-based; details: caspase-inhibition by the pan-caspase-inhibitor
Source text: A, migratory activity of cells with or without CAD (scratch assay). Percentages of the area closed upon scratch are given. In this assay, a monolayer of cells is mechanically scratched, and the cells migrate back to fill the gap. The speed with which they migrate is a measure of their migratory capacity.
B-D invasion through a basement membrane (number of cells are given that had invaded).
E, colony formation in soft agar (number of colonies). The invasion assay uses a basement membrane in a culture dish. The cells are seeded on top of the membrane, and after a predetermined time (here: 24 h), the number of cells at the bottom of the membrane is determined. This is a measure of the capacity of the cells to invade tissue. Colony formation measures a capacity also termed ‘anchorage-independent growth’. It is a particular capacity of metastatic cells to be able to grow to colonies without support from other cells of solid support (as in a plastic dish). Individual cells are seeded in soft agar to immobilize them and to test whether the single cells can grow and form colonies, a feature of metastatic cells. The number of colonies formed is then measured.
The cell lines and conditions were described in the legend to FIG. 1. zVAD, caspase-inhibitor zVAD-fmk. Ctrl., control cells; the other cell lines are labelled according to their genetic modification (gene deletion; Bcl-XL-overexpression). […]

HeLa cells = test: Chromosomal missegregation (CIN) and micronuclei in cancer cells; type: cell-based, human; details: cells incubated for one day with caspase-inhibitor
Source text: A, the various pictures of chromosomal missegregation/misalignment are shown as examples (left) and enumerated in HeLa cells (cervical carcinoma line; ctrl., control; CAD, lacking CAD; STING, lacking STING; STING is not relevant to this invention).
C, missegregation in HeLa cells with inhibition in the mitochondrial apoptosis apparatus. Symbols as in A. zVAD-fmk is a small molecule pan-caspase-inhibitor. Apaf-1 is an adapter protein of caspase-9 that is required for caspase-activation upon release of cytochrome c from mitochondria. Both Bax and Bak can directly release cytochrome c, and the presence of at least one of them is required for mitochondrial apoptosis. Bcl-XL is a mitochondrial protein that blocks the activation and activity of Bax and Bak and thereby inhibits apoptosis. […]
Metastasis is linked in the literature to chromosomal instability (CIN), most likely because DNA-ligands are generated that stimulate the cells. […] This is clear because cancer cells modified to lack CAD or components of the (CAD-activating) mitochondrial apoptosis apparatus, or where apoptosis signaling was blocked using a chemical caspase inhibitor (zVAD-fmk), all show reduced CIN (measured as chromosomal missegregation, for instance as chromatin-bridges in dividing cells) and numbers of MN (FIG. 1). […]

SMILES: O=c1c(Cl)c(Cl)cnn1-c1ccccc1 [CD22, 4,5-dichloro-2-phenylpyridazin-3-one]
- CAD-inhibitory activity against caspase-activated CAD (γH2AX) (caspase-activated CAD): CAD-inhibitory activity
- Inhibition of auxin-dependent DDR (γH2AX) (CAD): blocked the DDR

SMILES: COc1cc(/C=C2\CCc3ccccc3C2=O)cc(OC)c1 [MB37, (2E)-2-[(3,5-dimethoxyphenyl)methylidene]-3,4-dihydronaphthalen-1-one]
- Inhibition of auxin-dependent DDR (γH2AX) (CAD): blocked the DDR

SMILES: COc1cc(/C=C2\CCc3ccccc3C2=O)cc(OC)c1OC [MB33, (2E)-2-[(3,4,5-trimethoxyphenyl)methylidene]-3,4-dihydronaphthalen-1-one]
- Inhibition of auxin-dependent DDR (γH2AX) (CAD): blocked the DDR

SMILES: O=C(Cn1ncc(Cl)c(Cl)c1=O)Nc1ccc(N2CCCC2)cc1 [CBN62, 2-(4,5-dichloro-6-oxopyridazin-1-yl)-N-(4-pyrrolidin-1-ylphenyl)acetamide]
- CAD-inhibitory activity against caspase-activated CAD (γH2AX) (caspase-activated CAD): CAD-inhibitory activity
- Inhibition of auxin-dependent DDR (γH2AX) (CAD): blocked the DDR

SMILES: Cc1ccc(Sc2ccc([N+](=O)[O-])c3nonc23)cc1 [MB26, 4-(4-methylphenyl)sulfanyl-7-nitro-2,1,3-benzoxadiazole]
- CAD-inhibitory activity against caspase-activated CAD (γH2AX) (caspase-activated CAD): CAD-inhibitory activity
- Inhibition of auxin-dependent DDR (γH2AX) (CAD): blocked the DDR

SMILES: CC(=O)Nc1nc([N+](=O)[O-])n(-c2ccccc2)n1 [CBN17, N-(5-nitro-1-phenyl-1,2,4-triazol-3-yl)acetamide]
- CAD-inhibitory activity against caspase-activated CAD (γH2AX) (caspase-activated CAD): CAD-inhibitory activity
- Inhibition of auxin-dependent DDR (γH2AX) (CAD): blocked the DDR

SMILES: COC(=O)C[C@H](NC(=O)[C@H](C)NC(=O)[C@@H](NC(=O)OCc1ccccc1)C(C)C)C(=O)CF [zVAD-fmk] (Cbz-Val-Ala-Asp(OMe)-CH2F)
- aggressive growth in vitro (migration, invasion, colony formation) (cancer cells): less aggressive growth
- CIN (chromosomal missegregation) (HeLa cells): reduced CIN
- numbers of MN (micronuclei) (HeLa cells): reduced

SMILES: O=C1NC(=S)NC(=O)C1=Cc1c2ccccc2cc2ccccc12 [CBN65, 5-(anthracen-9-ylmethylidene)-2-sulfanylidene-1,3-diazinane-4,6-dione]
- CAD-inhibitory activity against caspase-activated CAD (γH2AX) (caspase-activated CAD): CAD-inhibitory activity
- Inhibition of auxin-dependent DDR (γH2AX) (CAD): blocked the DDR

SMILES: O=[N+]([O-])c1ccc(C=Nc2cc(C(F)(F)F)ccc2N2CCOCC2)s1 [MB4, N-[2-morpholin-4-yl-5-(trifluoromethyl)phenyl]-1-(5-nitrothiophen-2-yl)methanimine]
- CAD-inhibitory activity against caspase-activated CAD (γH2AX) (caspase-activated CAD): CAD-inhibitory activity
- Inhibition of auxin-dependent DDR (γH2AX) (CAD): blocked the DDR

SMILES: COc1cc(/C=C2/CCC/C(=C\c3ccc(O)c(OC)c3)C2=O)ccc1O [CBN40, (2E,6Z)-2,6-bis[(4-hydroxy-3-methoxyphenyl)methylidene]cyclo-hexan-1-one]
- Inhibition of auxin-dependent DDR (γH2AX) (CAD): blocked the DDR

SMILES: O=C1/C(=C/c2ccccn2)N2CCC1CC2 [CBN16, (2Z)-2-(pyridin-2-ylmethylidene)-1-azabicyclo[2.2.2]octan-3-one]
- CAD-inhibitory activity against caspase-activated CAD (γH2AX) (caspase-activated CAD): CAD-inhibitory activity
- Inhibition of auxin-dependent DDR (γH2AX) (CAD): blocked the DDR

SMILES: Cc1nn(Cc2ccc(Cl)c(Cl)c2)c(C)c1NC(=O)CCCS(=O)(=O)c1nc(-c2cccs2)cc(C(F)(F)F)n1 [CBN68, N-[1-[(3,4-dichlorophenyl)methyl]-3,5-dimethylpyrazol-4-yl]-4-[4-thiophen-2-yl-6-(trifluoromethyl)pyrimidin-2-yl]sulfonylbutanamide]
- CAD-inhibitory activity against caspase-activated CAD (γH2AX) (caspase-activated CAD): CAD-inhibitory activity
- Inhibition of auxin-dependent DDR (γH2AX) (CAD): blocked the DDR

SMILES: Clc1ncnc2c1C(c1ccc(Br)cc1)c1c(Cl)ncnc1O2 [CD9, 9-(4-bromophenyl)-7,11-dichloro-2-oxa-4,6,12,14-tetrazatricyclo[8.4.0.0^3,8] tetradeca-1(10),3(8),4,6,11,13-hexaene]
- CAD-inhibitory activity against caspase-activated CAD (γH2AX) (caspase-activated CAD): CAD-inhibitory activity
- Inhibition of auxin-dependent DDR (γH2AX) (CAD): blocked the DDR
